We go through 29 molecules from PubChem BioAssay AID248 (DTP/NCI, 2004).

Inconclusive results and toxic doses are left out.

The experiment has as its system L1210 leukemia ip in BDF1 mice, survival T/C. Description: NCI In Vivo Anticancer Drug Screen. Data for tumor model L1210 Leukemia (intraperitoneal) in B6D2F1 (BDF1) mice. The following applies: endpoint: mean survival time, higher = longer survival. Summed up: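 Each compound was tested against a transplantable tumor grown in mice. The endpoint was survival, with treated animals benchmarked against vehicle controls as a simple ratio.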

[1] abbreviates: dose: 100.0 mg/kg/injection, schedule: Q04DX003 (ip), vehicle: saline.
The mark [2] stands for this setting: dose: 200.0 mg/kg/injection, schedule: Q04DX003 (ip), vehicle: saline.
The mark [3] stands for this setting: dose: 400.0 mg/kg/injection, schedule: Q04DX003 (ip), vehicle: saline.
Setting [4] is: dose: 100.0 mg/kg/injection, schedule: Q01DX009 (ip), vehicle: saline.
The mark [5] stands for this setting: dose: 200.0 mg/kg/injection, schedule: Q01DX009 (ip), vehicle: saline.
[6] abbreviates: dose: 400.0 mg/kg/injection, schedule: Q01DX009 (ip), vehicle: saline.
[7] abbreviates: dose: 100.0 mg/kg/injection, schedule: Q01DX001 (ip), vehicle: carboxymethylcellulose (CMC).
Setting [8] is: dose: 200.0 mg/kg/injection, schedule: Q01DX001 (ip), vehicle: carboxymethylcellulose (CMC).
Where [9] appears, read: dose: 100.0 mg/kg/injection, schedule: Q04DX003 (ip), vehicle: acetone.
Where [10] appears, read: dose: 200.0 mg/kg/injection, schedule: Q04DX003 (ip), vehicle: acetone.
[11] abbreviates: dose: 100.0 mg/kg/injection, schedule: Q04DX002 (ip), vehicle: Klucel (hydroxypropylcellulose) (HPC).
Where [12] appears, read: dose: 200.0 mg/kg/injection, schedule: Q04DX002 (ip), vehicle: Klucel (hydroxypropylcellulose) (HPC).
[13] abbreviates: dose: 400.0 mg/kg/injection, schedule: Q04DX002 (ip), vehicle: Klucel (hydroxypropylcellulose) (HPC).
Where [14] appears, read: dose: 100.0 mg/kg/injection, schedule: Q01DX001 (ip), vehicle: saline.
[15] abbreviates: dose: 200.0 mg/kg/injection, schedule: Q01DX001 (ip), vehicle: saline.
The mark [16] stands for this setting: dose: 400.0 mg/kg/injection, schedule: Q01DX001 (ip), vehicle: saline.
Where [17] appears, read: dose: 50.0 mg/kg/injection, schedule: Q01DX009 (ip), vehicle: saline.
Where [18] appears, read: dose: 100.0 mg/kg/injection, schedule: Q01DX001 (ip), vehicle: Klucel (hydroxypropylcellulose) (HPC).
Setting [19] is: dose: 200.0 mg/kg/injection, schedule: Q01DX001 (ip), vehicle: Klucel (hydroxypropylcellulose) (HPC).
The mark [20] stands for this setting: dose: 400.0 mg/kg/injection, schedule: Q01DX001 (ip), vehicle: Klucel (hydroxypropylcellulose) (HPC).
Setting [21] is: dose: 50.0 mg/kg/injection, schedule: Q01DX009 (ip), vehicle: saline with Tween-80.
Where [22] appears, read: dose: 100.0 mg/kg/injection, schedule: Q01DX009 (ip), vehicle: saline with Tween-80.
Where [23] appears, read: dose: 200.0 mg/kg/injection, schedule: Q01DX009 (ip), vehicle: saline with Tween-80.
Setting [24] is: dose: 400.0 mg/kg/injection, schedule: Q01DX009 (ip), vehicle: saline with Tween-80.

As to `O=C(Nc1ccc2c(O)cc(S(=O)(=O)O)cc2c1)Nc1ccc2c(O)cc(S(=O)(=O)O)cc2c1`, the T/C reads like this: under setting [1], 96 % of control; under setting [2], 108 % of control; under setting [3], 108 % of control.
With `CCOC(=O)CCN1CCCCCC1`, the T/C by setting is: under setting [4], 104 % of control; under setting [1], 92 % of control; under setting [5], 104 % of control; under setting [2], 98 % of control; under setting [6], 101 % of control; under setting [3], 102 % of control.
Take `CCCCCCCCCCCC(=O)Nc1ccc(C(C)C)cc1`: the T/C reads like this: (dose: 100.0 mg/kg/injection, schedule: Q01DX001 (ip), vehicle: saline with Tween-80) 102 % of control; (dose: 200.0 mg/kg/injection, schedule: Q01DX001 (ip), vehicle: saline with Tween-80) 87 % of control; (dose: 400.0 mg/kg/injection, schedule: Q01DX001 (ip), vehicle: saline with Tween-80) 92 % of control.
On to `CCOC(=O)N1C=Cc2ccccc2C1C#N` (centres undefined), for which the T/C reads like this: under setting [7], 124 % of control; under setting [8], 98 % of control; (dose: 400.0 mg/kg/injection, schedule: Q01DX001 (ip), vehicle: carboxymethylcellulose (CMC)) 93 % of control.
Consider `O=C(O)c1nnn(Cc2ccccc2)n1`, for which the T/C is 94 % of control under setting [9]; 96 % of control under setting [10]; 96 % of control (dose: 400.0 mg/kg/injection, schedule: Q04DX003 (ip), vehicle: acetone).
With `CCOc1cc(OCC)c(/C=C/[N+](=O)[O-])c(OCC)c1`, the T/C by setting is: under setting [11], 87 % of control; under setting [12], 97 % of control; under setting [13], 100 % of control.
Take `O=P(OCCCCl)(OCCCCl)C(Cl)(Cl)Cl`: the T/C reads like this: under setting [14], 102 % of control; under setting [15], 101 % of control; under setting [16], 101 % of control.
Turning to `O=C1OC(c2cccc(Cl)c2)=N/C1=C\c1ccccc1`, the T/C reads like this: under setting [11], 98 % of control; under setting [13], 104 % of control.
Turning to `COC(=O)C(CO)NC(c1ccccc1)(c1ccccc1)c1ccccc1` (centres undefined), the T/C by setting is: under setting [17], 91 % of control; under setting [4], 95 % of control; under setting [5], 92 % of control; under setting [6], 97 % of control.
For the molecule `O=C(O)c1cc(I)cc(Br)c1I`, the T/C is, setting by setting: under setting [11], 102 % of control; under setting [12], 110 % of control; under setting [13], 105 % of control.
Take `Cc1ccc(C(SCC(N)C(=O)O)(c2ccc(C)cc2)c2ccc(C)cc2)cc1` (centres undefined): the T/C (dose: 4.8 mg/kg/injection, schedule: Q01DX009 (ip), vehicle: saline) is 95 % of control; the T/C (dose: 6.5 mg/kg/injection, schedule: Q01DX009 (ip), vehicle: saline) was 108 % of control; the T/C (dose: 7.2 mg/kg/injection, schedule: Q01DX009 (ip), vehicle: saline) is 104 % of control; the T/C (dose: 12.5 mg/kg/injection, schedule: Q01DX009 (ip), vehicle: saline) is 123 % of control; the T/C (dose: 50.0 mg/kg/injection, schedule: Q01DX009 (ip), vehicle: other) was 120 % of control; the T/C under setting [17] was 157 % of control. In addition, the T/C was 221 % of control under setting [4] and 94 % of control (dose: 400.0 mg/kg/injection, schedule: Q01DX009 (ip), vehicle: other).
As to `CC(=O)OCC(Br)C(Br)COC(C)=O` (centres undefined), the T/C runs as follows: under setting [4], 98 % of control; under setting [5], 95 % of control; under setting [6], 103 % of control.
For `Cc1cc(S(=O)(=O)c2ccccc2)c(C)s1`, the T/C by setting is: under setting [17], 91 % of control; (dose: 50.0 mg/kg/injection, schedule: Q04DX003 (ip), vehicle: acetone) 96 % of control; under setting [14], 98 % of control; under setting [4], 89 % of control; under setting [9], 96 % of control; under setting [15], 101 % of control. The T/C is 94 % of control under setting [5] and 94 % of control under setting [10].
For `COC(=O)C1C2C=CC(C2)C1C(=O)OC` (centres undefined), the T/C (dose: 100.0 mg/kg/injection, schedule: Q04DX003 (ip), vehicle: saline with Tween-80) is 99 % of control; the T/C (dose: 200.0 mg/kg/injection, schedule: Q04DX003 (ip), vehicle: saline with Tween-80) was 105 % of control; the T/C (dose: 400.0 mg/kg/injection, schedule: Q04DX003 (ip), vehicle: saline with Tween-80) is 92 % of control.
As to `Cn1c(=O)c2ncn(CC3CCCCC3)c2n(C)c1=O`, the T/C is, setting by setting: (dose: 50.0 mg/kg/injection, schedule: Q01DX001 (ip), vehicle: carboxymethylcellulose (CMC)) 87 % of control; under setting [7], 90 % of control; under setting [8], 86 % of control.
For the molecule `O=C1NCN(c2ccccc2)C12CCN(Cc1nc3cc([N+](=O)[O-])ccc3n1-c1ccccc1)CC2`, the T/C is, setting by setting: under setting [18], 86 % of control; under setting [19], 93 % of control; under setting [20], 99 % of control.
Regarding `COC(=O)C(N)Cc1ccc(OC(c2ccccc2)(c2ccccc2)c2ccccc2)cc1` (centres undefined), the T/C was 101 % of control under setting [17], 103 % of control under setting [4], 100 % of control under setting [5] and 100 % of control under setting [6].
With `NC(=O)NC(=O)c1ccccc1`, the T/C was 96 % of control under setting [4], 101 % of control under setting [5] and 106 % of control under setting [6].
For `O=C(O)c1ccccc1NC(C(=O)O)c1ccccc1` (centres undefined), the T/C was 100 % of control (dose: 100.0 mg/kg/injection, schedule: Q04DX002 (ip), vehicle: saline with Tween-80); 96 % of control (dose: 200.0 mg/kg/injection, schedule: Q04DX002 (ip), vehicle: saline with Tween-80); 96 % of control (dose: 400.0 mg/kg/injection, schedule: Q04DX002 (ip), vehicle: saline with Tween-80).
In the case of `Cc1nc2c(NC(=O)CCl)nn(C)c2nc1C`, the T/C under setting [21] is 98 % of control and the T/C under setting [22] is 98 % of control.
On to `CC(O)(CC(=O)O)c1ccc([N+](=O)[O-])cc1` (centres undefined), for which the T/C by setting is: (dose: 50.0 mg/kg/injection, schedule: Q01DX001 (ip), vehicle: saline) 96 % of control; under setting [14], 102 % of control; under setting [15], 108 % of control; under setting [16], 102 % of control.
For `COC1OC(CBr)C(OC(=O)c2ccccc2)C(OC(=O)c2ccccc2)C1OC(=O)c1ccccc1` (centres undefined), the T/C under setting [11] was 101 % of control, the T/C under setting [12] is 96 % of control and the T/C under setting [13] is 90 % of control.
Regarding `C#CCOC1CCCCO1` (centres undefined), under setting [1], the T/C was 104 % of control.
Regarding `Nc1c(Cl)c(Cl)cc(Cl)c1Cl`, the T/C is, setting by setting: under setting [22], 102 % of control; under setting [23], 100 % of control; under setting [24], 95 % of control.
Regarding `CCOC(=O)c1c(C)cn2c1OC(C)CC2(C)C` (centres undefined), the T/C is 105 % of control under setting [18], 94 % of control under setting [19] and 96 % of control under setting [20].
As to `Cc1cc(=O)[nH]c(O)c1C#N`, the T/C is, setting by setting: under setting [22], 98 % of control; under setting [23], 108 % of control; under setting [24], 98 % of control.
As to `COc1ccc(C(=O)/C=C2\C(=O)Nc3ccc(Br)cc32)cc1`, the T/C runs as follows: under setting [11], 107 % of control; under setting [12], 100 % of control; under setting [13], 93 % of control.
In the case of `CC1CCC2(O)C(O)CCCC2(C)C1C` (centres undefined), the T/C is 92 % of control under setting [21], 89 % of control under setting [22] and 92 % of control under setting [23].
With `O=C(OCc1ccccc1CN1CCCCC1)c1ccc(Cl)cc1`, the T/C reads like this: (dose: 25.0 mg/kg/injection, schedule: Q04DX002 (ip), vehicle: Klucel (hydroxypropylcellulose) (HPC)) 102 % of control; (dose: 50.0 mg/kg/injection, schedule: Q04DX002 (ip), vehicle: Klucel (hydroxypropylcellulose) (HPC)) 105 % of control; under setting [11], 107 % of control.
